Consider 9 compounds from ChEMBL document CHEMBL1201862, “PubChem BioAssay data set” (2004).

Assay in all cases: growth of human tumour cells (NCI), 48 h
For assay [1], the system named is LOX IMVI.
Assay [2] relates to OVCAR-4.
The subject of assay [3] is SF-295.
Assay [4] deals with Hs-578T.
Assay [5] relates to RPMI-8226.
Assay [6] deals with COLO 205.
For assay [7], the system named is SF-268.
Assay [8] relates to SK-MEL-5.
Assay [9] concerns BT-549.
The subject of assay [10] is EKVX.
Assay [11] has as its system SF-539.
Assay [12] relates to MDA-MB-435.
In assay [13] the test system is A549.
The test system of assay [14] is OVCAR-3.
Assay [15] deals with CAKI-1.
Assay [16] concerns NCI-H522.
The subject of assay [17] is SNB-19.
Assay [18] concerns CCRF-CEM.
Assay [19] relates to 786-0.
The subject of assay [20] is OVCAR-5.

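Where inhibition never reached the appropriate level, the endpoint shown equals the highest concentration tested. Otherwise, values were interpolated linearly from a five-concentration, 48-hour dose response in 96-well plates. GI50 is the concentration that inhibits growth by half.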 Active and inactive are the calls of the source. Cut-off read from the data, not from the text of the source: active = GI50 up to about 1.1 µM and inactive = higher. Peptide text beside a SMILES is read from it.

On to `c1ccc2c(c1)cc1c3[nH]c4ccccc4c3ccn21`, for which the GI50 in assay [1] is > 10 µM (inactive); in [2], > 10 µM (inactive); in [3], > 10 µM (inactive); in assay [4], > 10 µM (inactive); in [5], 4.59 µM (inactive); in assay [6] it was 1.61 µM (inactive). Besides, the GI50 in assay [7], in assay [8], in assay [9], in assay [10], in assay [11] and in assay [12] was > 10 µM (inactive) each time. The GI50 in assay [13] was > 10 µM (inactive); in [14], > 10 µM (inactive); in [15], > 10 µM (inactive); in assay [16], > 10 µM (inactive); in assay [17] it was > 10 µM (inactive); in [18], 8.32 µM (inactive). The GI50 in assay [19] and in [20] was > 10 µM (inactive) throughout.

Turning to `CC1=CCCC(C)(O)C2CC(CCC3(C)OC3CC1)C(C)C(=O)O2` (centres undefined), the GI50 in assay [1], in [2], in assay [3], in [4], in assay [5] and in [6] was > 100 µM (inactive) in each case. Also, the GI50 in assay [7], in [8], in [9], in assay [10], in assay [11] and in assay [12] was > 100 µM (inactive) throughout. Further, the GI50 in assay [13], in assay [14], in assay [15], in [16], in [17] and in [18] was > 100 µM (inactive) in each case. Further, the GI50 in [19] and in [20] was > 100 µM (inactive) each time.

In the case of `CC(=O)NC(CS)C(=O)NC(CO)C(=O)NC(CO)C(=O)NC(Cc1c[nH]c2ccccc12)C(=O)N1CCCC1C(=O)NC(CO)C(=O)NC(Cc1c[nH]c2ccccc12)C(=O)NC(Cc1c[nH]cn1)C(=O)NC(CO)C(=O)NC(Cc1c[nH]c2ccccc12)C(=O)NCC(=O)NCC(=O)NC(C)C(=O)NC(CCC(N)=O)C(=O)NC(CCCCN)C(=O)NC(C)C(=O)NC(CCCNC(=N)N)C(=O)NC(CCCCN)C(N)=O` (centres undefined) (Ac-CSSWPSWHSWGGAQKARK-NH2; configuration not given here), the GI50 in assay [1] was 46.3 µM (inactive); in assay [2], > 50 µM (inactive); in [3], > 50 µM (inactive); in assay [4], 29.2 µM (inactive); in assay [5], 39 µM (inactive); in assay [6], 12.8 µM (inactive). The GI50 in assay [7] is 16.7 µM (inactive); in assay [8], 11 µM (inactive); in assay [9], 14.4 µM (inactive); in assay [10], 28.3 µM (inactive); in [11] it was 17.1 µM (inactive); in [12], 15.7 µM (inactive). Moreover, the GI50 in [13] is > 50 µM (inactive); in assay [14], > 50 µM (inactive); in assay [15], 11.9 µM (inactive); in [16], 20.5 µM (inactive); in assay [17], > 50 µM (inactive); in assay [18], 17.7 µM (inactive). Further, the GI50 in assay [19] is 10.1 µM (inactive); in assay [20], > 50 µM (inactive).

`CCOC(=O)c1c(N2CCCC2)[nH]c(=O)c(C(c2ccc(Cl)c([N+](=O)[O-])c2)c2c(O)c(C(=O)OCC)c(N3CCCC3)[nH]c2=O)c1O`: the GI50 was 19.3 µM (inactive) in assay [1]; > 100 µM (inactive) in assay [2]; 37.6 µM (inactive) in assay [3]; 6.55 µM (inactive) in [4]; 42.9 µM (inactive) in assay [5]; > 100 µM (inactive) in assay [6]. In addition, the GI50 in assay [7] is 23 µM (inactive); in assay [8], 37.8 µM (inactive); in assay [9] it was 16.3 µM (inactive); in [10], 33.7 µM (inactive); in [11] it was 19.2 µM (inactive); in assay [12], 29.4 µM (inactive). The GI50 in assay [13] was > 100 µM (inactive); in [14], 29.9 µM (inactive); in assay [15], 24.4 µM (inactive); in [16], 24.5 µM (inactive); in assay [17], 15.5 µM (inactive); in assay [18], 23.6 µM (inactive). Also, the GI50 was 27.2 µM (inactive) in assay [19] and 30.2 µM (inactive) in [20].

For `Cc1ccc2oc(=O)c(C(=O)Nc3nc(C45CC6CC(CC(C6)C4)C5)cs3)cc2c1`, the GI50 in [1], in [2], in assay [3], in assay [4], in [5] and in assay [6] was > 100 µM (inactive) in each case. Moreover, the GI50 in [7], in [8], in [9], in [10], in assay [11] and in assay [12] was > 100 µM (inactive) in each case. Besides, the GI50 in [13], in [14], in [15], in [16], in assay [17] and in assay [18] was > 100 µM (inactive) throughout. Besides, the GI50 in assay [19] and in [20] was > 100 µM (inactive) in each case.

As for `Cc1ccccc1NC(=S)N/N=C(/c1ccccc1)c1ccccn1`, the GI50 in assay [1] is < 0.01 µM (active); in [2], 0.0826 µM (active); in [3] it was 0.0883 µM (active); in assay [4], 13.2 µM (inactive); in assay [5] it was < 0.01 µM (active); in [6], < 0.01 µM (active). Moreover, the GI50 in assay [7] is 0.0904 µM (active); in assay [8], 0.0664 µM (active); in [9] it was 2.58 µM (inactive); in assay [10] it was < 0.0381 µM (active); in assay [11], 0.384 µM (active); in assay [12] it was 0.757 µM (active). The GI50 in [13] is 0.0428 µM (active); in assay [14] it was < 0.01 µM (active); in [15], 0.0743 µM (active); in assay [16] it was 0.0902 µM (active); in assay [17] it was 1.62 µM (inactive); in assay [18], < 0.01 µM (active). In addition, the GI50 in [19] is < 0.0214 µM (active); in assay [20] it was < 0.0165 µM (active).

For the compound `CCC1(CC)C(=O)N(C(=O)c2cc(OC)c(OC)c(OC)c2)N(C(=O)c2cc(OC)c(OC)c(OC)c2)C1=O`, the GI50 in assay [1] was > 50 µM (inactive); in [2], > 50 µM (inactive); in assay [3], 24.8 µM (inactive); in assay [4] it was > 50 µM (inactive); in [5] it was > 50 µM (inactive); in assay [6], > 50 µM (inactive). The GI50 in [7] was > 50 µM (inactive); in assay [8], 46.1 µM (inactive); in [9], > 50 µM (inactive); in [10], > 50 µM (inactive); in assay [11], > 50 µM (inactive); in assay [12] it was > 50 µM (inactive). The GI50 in assay [13], in assay [14], in [15], in [16], in [17] and in assay [18] was > 50 µM (inactive) throughout. Besides, the GI50 in assay [19] and in assay [20] was > 50 µM (inactive) in each case.

As for `CSc1nc(=S)[nH]c2c1c(C)nn2-c1ccccc1`, the GI50 in assay [1] was 15.7 µM (inactive); in [2], 17.2 µM (inactive); in assay [3] it was 22.9 µM (inactive); in [4] it was 38 µM (inactive); in [5], 6.73 µM (inactive); in assay [6], 20.1 µM (inactive). Besides, the GI50 in assay [7] is 22.1 µM (inactive); in [8], 13.1 µM (inactive); in assay [9], 19.7 µM (inactive); in assay [10], 18.1 µM (inactive); in assay [11], 28.1 µM (inactive); in [12], 40.5 µM (inactive). In addition, the GI50 in assay [13] is 31.3 µM (inactive); in assay [14], 35.5 µM (inactive); in assay [15], 21.2 µM (inactive); in [16] it was 19.1 µM (inactive); in assay [17] it was 23.3 µM (inactive); in assay [18], 10.6 µM (inactive). For the same compound, the GI50 in assay [19] was 24.3 µM (inactive); in assay [20], 51.1 µM (inactive).

Consider `O=c1[nH][nH]c(=O)n1Cc1ccccc1`, for which the GI50 in assay [1], in assay [2], in assay [4], in assay [5], in assay [6] and in assay [7] was > 100 µM (inactive) throughout. In addition, the GI50 in assay [8], in [9], in assay [10], in assay [11], in assay [12] and in assay [13] was > 100 µM (inactive) each time. Moreover, the GI50 in assay [14], in assay [15], in [16], in [17], in [18] and in assay [19] was > 100 µM (inactive) throughout. In assay [20], the GI50 is > 100 µM (inactive).
